# According to patent publication US20230212549A1, “COMPOUNDS COMPRISING A […] LIGAND AND USE THEREOF” (priority 2021, published 2023):
# pIC50: −log10 of the molar value. Numbered stars: 1 amine (or outer) side, 2 acyl side, 3 side chain; on linkers, the order of the positions; unused ones are H or OH. Bridge positions count the residues as written; N and C are the ends. Square brackets hold non-standard residues; d marks the D form. Peptide text beside a SMILES is read from it. * marks the point of attachment. X32 = O=C(O)CN1CCN(CC(=O)O)CCN(CC(=O)NCc2cc(C[*:1])cc(C[*:2])c2)CCN(CC(=O)O)CC1; Bip = N[C@@H](Cc1ccc(-c2ccccc2)cc1)C(=O)O; Phe(4-Cl) = N[C@@H](Cc1ccc(Cl)cc1)C(=O)O; Pro(4S-NH2) = N[C@@H]1CN[C@H](C(=O)O)C1; Phe(2-Cl) = N[C@@H](Cc1ccccc1Cl)C(=O)O; Pro(4,4-F2) = O=C(O)[C@@H]1CC(F)(F)CN1; 1Nal = N[C@@H](Cc1cccc2ccccc12)C(=O)O; 2Nal = N[C@@H](Cc1ccc2ccccc2c1)C(=O)O; mXylylene = c1cc(C[*:1])cc(C[*:2])c1; Hyp = O=C(O)[C@@H]1C[C@@H](O)CN1; NMeF = CN[C@@H](Cc1ccccc1)C(=O)O; NMeE = CN[C@@H](CCC(=O)O)C(=O)O; Tic = O=C(O)[C@@H]1Cc2ccccc2CN1; Nphe = O=C(O)CNCc1ccccc1; Orn = NCCC[C@H](N)C(=O)O; Hexanoyl = CCCCCC(=O)*
# Legend:
# Human recombinant FAP = Human recombinant FAP (Homo sapiens, UniProt Q12884); assay: FRET-based FAP protease activity assay; type: biochemical; design: purchased R&D systems 3715-SE; details: pIC50 Category (Activity), FRET-based FAP protease activity assay, recombinant human FAP, 37° C.
# Chain of Human recombinant FAP (Q12884 whole entry): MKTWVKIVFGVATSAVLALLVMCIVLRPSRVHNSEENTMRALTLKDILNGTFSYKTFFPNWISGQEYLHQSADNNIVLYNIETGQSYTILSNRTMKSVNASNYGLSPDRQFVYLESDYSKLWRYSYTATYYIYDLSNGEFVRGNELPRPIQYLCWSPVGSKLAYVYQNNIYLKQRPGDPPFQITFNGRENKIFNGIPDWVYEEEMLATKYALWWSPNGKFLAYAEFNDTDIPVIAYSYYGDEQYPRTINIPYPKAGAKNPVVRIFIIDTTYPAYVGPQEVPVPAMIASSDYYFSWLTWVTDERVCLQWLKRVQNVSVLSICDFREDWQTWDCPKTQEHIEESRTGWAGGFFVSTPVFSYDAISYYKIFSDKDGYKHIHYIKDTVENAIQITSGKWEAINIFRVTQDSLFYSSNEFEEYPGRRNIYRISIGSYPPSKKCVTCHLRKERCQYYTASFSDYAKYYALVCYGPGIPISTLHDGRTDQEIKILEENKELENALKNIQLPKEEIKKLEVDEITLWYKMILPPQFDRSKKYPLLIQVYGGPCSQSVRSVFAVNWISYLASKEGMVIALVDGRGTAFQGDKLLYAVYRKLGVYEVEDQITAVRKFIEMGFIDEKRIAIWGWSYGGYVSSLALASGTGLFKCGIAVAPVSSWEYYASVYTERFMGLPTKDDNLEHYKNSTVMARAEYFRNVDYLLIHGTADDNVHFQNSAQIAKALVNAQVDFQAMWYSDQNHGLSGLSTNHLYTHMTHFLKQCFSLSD
# [1] = target: T1, FAP-expressing human WI-38 fibroblasts (Homo sapiens, UniProt Q12884); assay: Competitive FACS binding assay
# T1 construct: FAP-expressing human WI-38 fibroblasts (ECACC) were cultured in EMEM; host or cells: WI-38 human fibroblasts
# T1 sequence (Q12884 whole entry): as above
# Description: Cells were analyzed in an Attune NxT flow cytometer. […] […].
# Cells were analyzed in an Attune NxT flow cytometer. […]
pIC50 (Human recombinant FAP),pIC50 [1],SMILES
< 6.00,< 6.00,"CCCCCC(=O)N[C@H]1CSCc2cccc(c2)CSC[C@@H](C(N)=O)NC(=O)[C@H](Cc2ccccc2)NC(=O)[C@H](CCC(=O)O)N(C)C(=O)[C@H]([C@@H](C)O)NC(=O)[C@@H]2CCCN2C(=O)[C@@H]2CCCN2C1=O [3BP-3357, Hex-[Cys(3MeBn)-Pro-Pro-Thr-Nme-Phe-Cys]-NH2] (Hexanoyl-CPPT[NMeE]FC-NH2; linker 1-7 via mXylylene)"
6.10 to 7.00,< 6.00,"CCCCCC(=O)N[C@H]1CSCc2cccc(c2)CSC[C@@H](C(N)=O)NC(=O)[C@H](Cc2ccccc2)N(C)C(=O)[C@H](CCC(=O)O)NC(=O)[C@H]([C@@H](C)O)NC(=O)[C@@H]2CCCN2C(=O)[C@@H]2CCCN2C1=O [3BP-3358, Hex-[Cys(3MeBn)-Pro-Pro-Thr-Glu-Nmf-Cys]-NH2] (Hexanoyl-CPPTE[NMeF]C-NH2; linker 1-7 via mXylylene)"
6.10 to 7.00,< 6.00,"CCCCCC(=O)N[C@H]1CSCc2cccc(c2)CSC[C@@H](C(N)=O)NC(=O)[C@@H]2Cc3ccccc3CN2C(=O)[C@H](CCC(=O)O)NC(=O)[C@H]([C@@H](C)O)NC(=O)[C@@H]2CCCN2C(=O)[C@@H]2CCCN2C1=O [3BP-3359, Hex-[Cys(3MeBn)-Pro-Pro-Thr-Glu-Tic-Cys]-NH2] (Hexanoyl-CPPTE[Tic]C-NH2; linker 1-7 via mXylylene)"
< 6.00,< 6.00,"CCCCCC(=O)N[C@H]1CSCc2cccc(c2)CSC[C@@H](C(N)=O)NC(=O)CN(Cc2ccccc2)C(=O)[C@H](CCC(=O)O)NC(=O)[C@H]([C@@H](C)O)NC(=O)[C@@H]2CCCN2C(=O)[C@@H]2CCCN2C1=O [3BP-3360, Hex-[Cys(3MeBn)-Pro-Pro-Thr-Glu-Nphe-Cys]-NH2] (Hexanoyl-CPPTE[Nphe]C-NH2; linker 1-7 via mXylylene)"
7.10 to 8.00,7.10 to 8.00,"CCCCCC(=O)N[C@H]1CSCc2cccc(c2)CSC[C@@H](C(N)=O)NC(=O)[C@H](Cc2cccc3ccccc23)NC(=O)[C@H](CCC(=O)O)NC(=O)[C@H]([C@@H](C)O)NC(=O)[C@@H]2CCCN2C(=O)[C@@H]2CCCN2C1=O [3BP-3361, Hex-[Cys(3MeBn)-Pro-Pro-Thr-Glu-1Ni-Cys]-NH2] (Hexanoyl-CPPTE[1Nal]C-NH2; linker 1-7 via mXylylene)"
6.10 to 7.00,6.10 to 7.00,"CCCCCC(=O)N[C@H]1CSCc2cccc(c2)CSC[C@@H](C(N)=O)NC(=O)[C@H](Cc2ccc3ccccc3c2)NC(=O)[C@H](CCC(=O)O)NC(=O)[C@H]([C@@H](C)O)NC(=O)[C@@H]2CCCN2C(=O)[C@@H]2CCCN2C1=O [3BP-3362, Hex-[Cys(3MeBn)-Pro-Pro-Thr-Glu-2Ni-Cys]-NH2] (Hexanoyl-CPPTE[2Nal]C-NH2; linker 1-7 via mXylylene)"
< 6.00,< 6.00,"CCCCCC(=O)N[C@H]1CSCc2cccc(c2)CSC[C@@H](C(N)=O)NC(=O)[C@H](Cc2ccc(-c3ccccc3)cc2)NC(=O)[C@H](CCC(=O)O)NC(=O)[C@H]([C@@H](C)O)NC(=O)[C@@H]2CCCN2C(=O)[C@@H]2CCCN2C1=O [3BP-3363, Hex-[Cys(3MeBn)-Pro-Pro-Thr-Glu-Bip-Cys]-NH2] (Hexanoyl-CPPTE[Bip]C-NH2; linker 1-7 via mXylylene)"
6.10 to 7.00,< 6.00,"CCCCCC(=O)N[C@H]1CSCc2cccc(c2)CSC[C@@H](C(N)=O)NC(=O)[C@H](Cc2ccccc2)NC(=O)[C@H](CCC(=O)O)NC(=O)[C@H]([C@@H](C)O)NC(=O)[C@@H]2CC(F)(F)CN2C(=O)[C@@H]2CCCN2C1=O [3BP-3365, Hex-[Cys(3MeBn)-Pro-4Dfp-Thr-Glu-Phe-Cys]-NH2] (Hexanoyl-CP[Pro(4,4-F2)]TEFC-NH2; linker 1-7 via mXylylene)"
7.10 to 8.00,7.10 to 8.00,"CCCCCC(=O)N[C@H]1CSCc2cccc(c2)CSC[C@@H](C(N)=O)NC(=O)[C@H](Cc2ccccc2)NC(=O)[C@H](CCC(=O)O)NC(=O)[C@H]([C@@H](C)O)NC(=O)[C@@H]2C[C@@H](O)CN2C(=O)[C@@H]2CCCN2C1=O [3BP-3366, Hex-[Cys(3MeBn)-Pro-Hyp-Thr-Glu-Phe-Cys]-NH2] (Hexanoyl-CP[Hyp]TEFC-NH2; linker 1-7 via mXylylene)"
6.10 to 7.00,< 6.00,"CCCCCC(=O)N[C@H]1CSCc2cccc(c2)CSC[C@@H](C(N)=O)NC(=O)[C@H](Cc2ccccc2)NC(=O)[C@H](CCC(=O)O)NC(=O)[C@H]([C@@H](C)O)NC(=O)[C@@H]2C[C@H](N)CN2C(=O)[C@@H]2CCCN2C1=O [3BP-3367, Hex-[Cys(3MeBn)-Pro-Tap-Thr-Glu-Phe-Cys]-NH2] (Hexanoyl-CP[Pro(4S-NH2)]TEFC-NH2; linker 1-7 via mXylylene)"
7.10 to 8.00,6.10 to 7.00,"CCCCCC(=O)N[C@H]1CSCc2cccc(c2)CSC[C@@H](C(N)=O)NC(=O)[C@H](Cc2ccccc2Cl)NC(=O)[C@H](CCC(=O)O)NC(=O)[C@H]([C@@H](C)O)NC(=O)[C@@H]2CCCN2C(=O)[C@@H]2CCCN2C1=O [3BP-3368, Hex-[Cys(3MeBn)-Pro-Pro-Thr-Glu-Ocf-Cys]-NH2] (Hexanoyl-CPPTE[Phe(2-Cl)]C-NH2; linker 1-7 via mXylylene)"
6.10 to 7.00,6.10 to 7.00,"CCCCCC(=O)N[C@H]1CSCc2cccc(c2)CSC[C@@H](C(N)=O)NC(=O)[C@H](Cc2ccc(Cl)cc2)NC(=O)[C@H](CCC(=O)O)NC(=O)[C@H]([C@@H](C)O)NC(=O)[C@@H]2CCCN2C(=O)[C@@H]2CCCN2C1=O [3BP-3369, Hex-[Cys(3MeBn)-Pro-Pro-Thr-Glu-Pcf-Cys]-NH2] (Hexanoyl-CPPTE[Phe(4-Cl)]C-NH2; linker 1-7 via mXylylene)"
6.10 to 7.00,< 6.00,"CCCCCC(=O)N[C@H]1CSCc2cccc(c2)CSC[C@@H](C(N)=O)NC(=O)[C@H](Cc2ccccc2)NC(=O)[C@H](CCC(=O)O)NC(=O)[C@H](CCCNC(C)=O)NC(=O)[C@@H]2CCCN2C(=O)[C@@H]2CCCN2C1=O [3BP-3372, Hex-[Cys(3MeBn)-Pro-Pro-Orn(Ac)-Glu-Phe-Cys]-NH2] (Hexanoyl-CPP[Orn](Ac)EFC-NH2; linker 1-7 via mXylylene)"
> 8.00,7.10 to 8.00,"CCCCCC(=O)N[C@H]1CSCc2cccc(c2)CSC[C@@H](C(N)=O)NC(=O)[C@H](Cc2ccccc2C(F)(F)F)NC(=O)[C@H](CCC(N)=O)NC(=O)[C@H]([C@@H](C)O)NC(=O)[C@@H]2CCCN2C(=O)[C@@H]2CCCN2C1=O [3BP-3409, Hex-[Cys(3MeBn)-Pro-Pro-Thr-Gln-Otf-Cys]-NH2]"
7.10 to 8.00,7.10 to 8.00,"CCCCCC(=O)N[C@H]1CSCc2cc(CNC(=O)CN3CCN(CC(=O)O)CCN(CC(=O)O)CCN(CC(=O)O)CC3)cc(c2)CSC[C@@H](C(=O)N[C@@H](CC(=O)O)C(N)=O)NC(=O)[C@H](Cc2ccccc2)NC(=O)[C@H](CCC(N)=O)NC(=O)[C@H]([C@@H](C)O)NC(=O)[C@@H]2CCCN2C(=O)[C@@H]2CCCN2C1=O [3BP-3556, Hex-[Cys(tMeBn(DOTA-NH))-Pro-Pro-Thr-Gln-Phe-Cys]-Asp-NH2] (Hexanoyl-CPPTQFCD-NH2; linker 1-7 via X32)"
7.10 to 8.00,7.10 to 8.00,"CSCC[C@@H](NC(C)=O)C(=O)N[C@H]1CSCc2cc(CSCCNC(=O)CN3CCN(CC(=O)O)CCN(CC(=O)O)CCN(CC(=O)O)CC3)cc(c2)CSC[C@@H](C(=O)O)NC(=O)[C@H](Cc2ccccc2)NC(=O)[C@H](CCC(N)=O)NC(=O)[C@H]([C@@H](C)O)NC(=O)[C@@H]2CCCN2C(=O)[C@@H]2CCCN2C1=O [3BP-3682, Ac-met-[Cys(tMeBn(DOTA-AET))-Pro-Pro-Thr-Gln-Phe-Cys]-OH]"
